From patent US7598032B2, “Thermostable DNA polymerases incorporating nucleoside triphosphates labeled with fluorescent dyes” (Roche Molecular Systems, priority 1997, dated 2009)

Columns and labels:
[1] = target: F730Y Tma30 DNA polymerase (nucleotides 1-570 of Taq DNA polymerase with G46D fused to nucleotides 571-2679 of Tma DNA polymerase with D323A, E325A, F730Y); assay: Limiting template primer extension competition assay (ddNTP incorporation), F730Y Tma30; assay type: biochemical, Thermus aquaticus / Thermotoga maritima; details: inhibition of DNA synthesis ([α-33P]dCMP incorporation); 20 μM each dNTP, M13 mp18/DG48, pH 8.3, 10 min; 2 units enzyme; read-out: Concentration of Zowie-ddCTP or ddCTP needed for 50% inhibition
Procedure: (§1) The ability of the enzymes of this invention to efficiently incorporate nucleotides labeled with fluorescein family dyes is measured by ddNTP incorporation assays. One such assay is a primer extension competition assay conducted under conditions of limiting template. In this assay, a primer DG48 (5′-[…]), (SEQ ID NO: 11), bound to M13 mp18 template (Innis et al., 1988, Proc. Natl. Acad. Sci. USA 85:9436) is extended in the presence of [α-^33P]dCTP and excess enzyme with various levels of a fluorescently labeled ddNTP, Zowie-ddCTP. Because the incorporation of a ddCTP residue terminates the extension reaction, the more readily a DNA polymerase incorporates a ddCTP into an extended primer, the less [α-^33P]dCTP can be incorporated. Thus, as the efficiency of fluorescently labeled ddCTP incorporation increases, the extent of inhibition of DNA synthesis is increased. The reactions were also performed with various levels of an unlabeled ddCTP. […]
(§2) The relative abilities of G46D F667Y Taq, G46D F667Y E681K Taq and F730Y Tma30 DNA polymerases to incorporate a fluorescein dye family-labeled ddCTP were compared by use of a limiting template, primer extension competition assay. […] In this competition assay, because the incorporation of a ddCTP terminates the extension reaction, the more readily the polymerase incorporates a ddCTP into an extended primer, the less [α-^33P]dCTP can be incorporated. […]

[2] = target: T1, Thermus aquaticus (Taq) DNA polymerase variant G46D F667Y E681K (Thermus aquaticus, UniProt P19821, E681K/F667Y/G46D); assay: Limiting template primer extension competition assay (ddNTP incorporation), G46D F667Y E681K Taq; assay type: biochemical
T1 construct: Expression vector pRDA3-2 contains the full-length Taq DNA polymerase gene; made in house; host or cells: E. coli DG116 (plasmid pLK113)
Procedure: as §1, §2

[3] = dye-terminator dideoxy-sequencing using rhodamine-labeled terminators; assay type: biochemical

Molecule | IC50 [1] | IC50 [2] | peak heights in dye-terminator dideoxy-sequencing [3]
Nc1ccn([C@H]2CC[C@@H](COP(=O)(O)OP(=O)(O)OP(=O)(O)O)O2)c(=O)n1 [ddCTP] | 57 nM | 116 nM | 
G46D F667Y E681K Taq: thermostable Taq DNA polymerase with G46D, F667Y and E681K mutations, encoded by plasmid pLK113 (protein, UniProt P19821 1-832, looked up, variant G46D F667Y E681K) DNA polymerase I, thermostable: MRGMLPLFEPKGRVLLVDGHHLAYRTFHALKGLTTSRGEPVQAVYDFAKSLLKALKEDGDAVIVVFDAKAPSFRHEAYGGYKAGRAPTPEDFPRQLALIKELVDLLGLARLEVPGYEADDVLASLAKKAEKEGYEVRILTADKDLYQLLSDRIHVLHPEGYLITPAWLWEKYGLRPDQWADYRALTGDESDNLPGVKGIGEKTARKLLEEWGSLEALLKNLDRLKPAIREKILAHMDDLKLSWDLAKVRTDLPLEVDFAKRREPDRERLRAFLERLEFGSLLHEFGLLESPKALEEAPWPPPEGAFVGFVLSRKEPMWADLLALAAARGGRVHRAPEPYKALRDLKEARGLLAKDLSVLALREGLGLPPGDDPMLLAYLLDPSNTTPEGVARRYGGEWTEEAGERAALSERLFANLWGRLEGEERLLWLYREVERPLSAVLAHMEATGVRLDVAYLRALSLEVAEEIARLEAEVFRLAGHPFNLNSRDQLERVLFDELGLPAIGKTEKTGKRSTSAAVLEALREAHPIVEKILQYRELTKLKSTYIDPLPDLIHPRTGRLHTRFNQTATATGRLSSSDPNLQNIPVRTPLGQRIRRAFIAEEGWLLVALDYSQIELRVLAHLSGDENLIRVFQEGRDIHTETASWMFGVPREAVDPLMRRAAKTINYGVLYGMSAHRLSQKLAIPYEEAQAFIERYFQSFPKVRAWIEKTLEEGRRRGYVETLFGRRRYVPDLEARVKSVREAAERMAFNMPVQGTAADLMKLAMVKLFPRLEEMGARMLLQVHDELVLEAPKERAEAVARLAKEVMEGVYPLAVPLEVEVGIGEDWLSAKE |  |  | more uniform peak heights
